Measurements taken from US9012470B2 (Dart NeuroScience (Cayman) Ltd., priority 2010, dated 2015).

Tested on: benzodiazepine site of GABAA
Test: Binding assay, benzodiazepine site of GABAA (binding assay 1: rat brain, (3H)-flunitrazepam; binding assay 2: bovine hippocampal membranes, [3H]-RY80)
Settings: radioligand binding; for % Inhibition at 0.1 μM: 0.1 μM test compound; for % Inhibition at 10 μM: 10 μM test compound
Protocol: The ability of a compound disclosed herein to act as ligand to the benzodiazepine site of GABAA can be determined using pharmacological models which are well known in the art using the following assay.
Binding assay 1: Whole brain (except cerebellum) of male Wistar derived rats weighing 175±25 g were used to prepare GABAA central benzodiazepine receptor in Na—K phosphate buffer pH 7.4. A 5 mg aliquot was incubated with 1 nM (^3H)-flunitrazepam for 60 minutes at 25° C. Experiments were performed in the presence or absence of 30 μM of GABA. Non-specific binding was estimated in the presence of 10 μM of diazepam. Membranes were filtered and washed, the filters were then counted to determine (^3H)-flunitrazepam specifically bound. Test compounds were tested in duplicate according to the required concentrations (Damm, H. W., et al. (1978) Res. Comm. Chem. Pathol. Pharmacol. 22: 597-560 incorporated herein in its entirety; Speth, R. C., et al. (1979) Life Sci. 24: 351-357 incorporated herein in its entirety).
Receptor Source: Bovine hippocampal membranes
Radioligand: [3H]-RY80 (40-80 Ci/mmol)
Final ligand concentration—[0.8 nM]
Non-specific Determinant: L-655,708—[0.5 μM]
Binding assay 2 followed procedures based on Li and Szabo (Li M., Szabo A., Rosenberg H. Evaluation of native GABAA receptors containing an α5 subunit. Eur. J. Pharmacol. 413: 63-72 (2001)). Incubation Conditions: Reactions are carried out in 50 mM Tris-Citrate (pH 7.8) containing 200 mM NaCl at 0-4° C. for 60 minutes. The reaction is terminated by rapid vacuum filtration onto glass fiber filters. Radioactivity trapped onto the filters is determined and compared to control values in order to ascertain any interactions of test compound with the benzodiazepine (central) binding site.

Compound | % Inhibition at 0.1 μM | % Inhibition at 10 μM
CCNC(=O)n1ncc2c3nn(-c4ccccc4F)c(=O)c-3c[nH]c21 | B (B indicates % inhibition <80% and >20%) | A (A indicates % inhibition >80%)
CC(C)NC(=O)n1ncc2c3nn(-c4ccccc4)c(=O)c-3c[nH]c21 [Compound 6a, N-isopropyl-3-oxo-2-phenyl-2,3-dihydrodipyrazolo[3,4-b:3′,4′-d]pyridine-6(5H)-carboxamide] | C (C indicates % inhibition <20%) | B (B indicates % inhibition <80% and >20%)
CC(C)NC(=O)n1ncc2c3nn(-c4ccc(C(C)C)cc4)c(=O)c-3c[nH]c21 [Compound 6aa, N-isopropyl-2-(4-isopropylphenyl)-3-oxo-2,3-dihydrodipyrazolo[3,4-b:3′,4′-d]pyridine-6(5H)-carboxamide] | – | B (B indicates % inhibition <80% and >20%)
CNC(=O)n1ncc2c3nn(-c4cccc(Cl)c4)c(=O)c-3c[nH]c21 [Compound 6ab, 2-(3-chlorophenyl)-N-methyl-3-oxo-2,3-dihydrodipyrazolo[3,4-b:3′,4′-d]pyridine-6(5H)-carboxamide] | – | A (A indicates % inhibition >80%)
CCCCNC(=O)n1ncc2c3nn(-c4cccc(Cl)c4)c(=O)c-3c[nH]c21 [Compound 6ac, N-butyl-2-(3-chlorophenyl)-3-oxo-2,3-dihydrodipyrazolo[3,4-b:3′,4′-d]pyridine-6(5H)-carboxamide] | – | A (A indicates % inhibition >80%)
CC(C)NC(=O)n1ncc2c3nn(-c4ccc(C(F)(F)F)cc4)c(=O)c-3c[nH]c21 [Compound 6af, N-isopropyl-3-oxo-2-(4-(trifluoromethyl)phenyl)-2,3-dihydrodipyrazolo[3,4-b:3′,4′-d]pyridine-6(5H)-carboxamide] | – | B (B indicates % inhibition <80% and >20%)
CNC(=O)n1ncc2c3nn(-c4ccc(C(F)(F)F)cc4)c(=O)c-3c[nH]c21 [Compound 6ag, N-methyl-3-oxo-2-(4-(trifluoromethyl)phenyl)-2,3-dihydrodipyrazolo[3,4-b:3′,4′-d]pyridine-6(5H)-carboxamide] | – | B (B indicates % inhibition <80% and >20%)
CCCCNC(=O)n1ncc2c3nn(-c4ccc(C(F)(F)F)cc4)c(=O)c-3c[nH]c21 [Compound 6ah, N-butyl-3-oxo-2-(4-(trifluoromethyl)phenyl)-2,3-dihydrodipyrazolo[3,4-b:3′,4′-d]pyridine-6(5H)-carboxamide] | – | B (B indicates % inhibition <80% and >20%)
CCCCNC(=O)n1ncc2c3nn(-c4cccc(C(F)(F)F)c4)c(=O)c-3c[nH]c21 [Compound 6aj, N-butyl-3-oxo-2-(3-(trifluoromethyl)phenyl)-2,3-dihydrodipyrazolo[3,4-b:3′,4′-d]pyridine-6(5H)-carboxamide] | C (C indicates % inhibition <20%) | B (B indicates % inhibition <80% and >20%)
CCCCNC(=O)n1ncc2c3nn(-c4ccc(Cl)cc4F)c(=O)c-3c[nH]c21 [Compound 6ak, N-butyl-2-(4-chloro-2-fluorophenyl)-3-oxo-2,3-dihydrodipyrazolo[3,4-b:3′,4′-d]pyridine-6(5H)-carboxamide] | C (C indicates % inhibition <20%) | A (A indicates % inhibition >80%)
CCCCNC(=O)n1ncc2c3nn(-c4ccccc4F)c(=O)c-3c[nH]c21 [Compound 6al, N-butyl-2-(2-fluorophenyl)-3-oxo-2,3-dihydrodipyrazolo[3,4-b:3′,4′-d]pyridine-6(5H)-carboxamide] | C (C indicates % inhibition <20%) | A (A indicates % inhibition >80%)
CCCCNC(=O)n1ncc2c3nn(-c4ccc(F)cc4F)c(=O)c-3c[nH]c21 [Compound 6an, N-butyl-2-(2,4-difluorophenyl)-3-oxo-2,3-dihydrodipyrazolo[3,4-b:3′,4′-d]pyridine-6(5H)-carboxamide] | B (B indicates % inhibition <80% and >20%) | A (A indicates % inhibition >80%)
CCNC(=O)n1ncc2c3nn(-c4ccc(F)cc4F)c(=O)c-3c[nH]c21 [Compound 6ao, 2-(2,4-difluorophenyl)-N-ethyl-3-oxo-2,3-dihydrodipyrazolo[3,4-b:3′,4′-d]pyridine-6(5H)-carboxamide] | B (B indicates % inhibition <80% and >20%) | A (A indicates % inhibition >80%)
CC(C)CCNC(=O)n1ncc2c3nn(-c4ccc(F)cc4F)c(=O)c-3c[nH]c21 [Compound 6ap, 2-(2,4-difluorophenyl)-N-isopentyl-3-oxo-2,3-dihydrodipyrazolo[3,4-b:3′,4′-d]pyridine-6(5H)-carboxamide] | C (C indicates % inhibition <20%) | A (A indicates % inhibition >80%)
CC(C)CNC(=O)n1ncc2c3nn(-c4ccc(F)cc4F)c(=O)c-3c[nH]c21 [Compound 6aq, 2-(2,4-difluorophenyl)-N-isobutyl-3-oxo-2,3-dihydrodipyrazolo[3,4-b:3′,4′-d]pyridine-6(5H)-carboxamide] | C (C indicates % inhibition <20%) | B (B indicates % inhibition <80% and >20%)
CCNC(=S)n1ncc2c3nn(-c4ccc(Br)cc4)c(=O)c-3c[nH]c21 [Compound 6at, 2-(4-bromophenyl)-N-ethyl-3-oxo-2,3-dihydrodipyrazolo[3,4-b:3′,4′-d]pyridine-6(5H)-carbothioamide] | A (A indicates % inhibition >80%) | A (A indicates % inhibition >80%)
CCNC(=S)n1ncc2c3nn(-c4ccc(C(C)C)cc4)c(=O)c-3c[nH]c21 [Compound 6au, N-ethyl-2-(4-isopropylphenyl)-3-oxo-2,3-dihydrodipyrazolo[3,4-b:3′,4′-d]pyridine-6(5H)-carbothioamide] | B (B indicates % inhibition <80% and >20%) | A (A indicates % inhibition >80%)
CC(C)NC(=O)n1ncc2c3nn(-c4ccc(Cl)cn4)c(=O)c-3c[nH]c21 [Compound 6aw, 2-(5-chloropyridin-2-yl)-N-isopropyl-3-oxo-2,3-dihydrodipyrazolo[3,4-b:3′,4′-d]pyridine-6(5H)-carboxamide] | – | B (B indicates % inhibition <80% and >20%)
CNC(=O)n1ncc2c3nn(-c4ccc(Cl)cn4)c(=O)c-3c[nH]c21 [Compound 6ax, 2-(5-chloropyridin-2-yl)-N-methyl-3-oxo-2,3-dihydrodipyrazolo[3,4-b:3′,4′-d]pyridine-6(5H)-carboxamide] | – | A (A indicates % inhibition >80%)
CNC(=O)n1ncc2c3nn(-c4ccc(Br)cc4)c(=O)c-3c[nH]c21 [Compound 6az, 2-(4-bromophenyl)-N-methyl-3-oxo-2,3-dihydrodipyrazolo[3,4-b:3′,4′-d]pyridine-6(5H)-carboxamide] | – | A (A indicates % inhibition >80%)
CC(C)CNC(=O)n1ncc2c3nn(-c4ccccc4)c(=O)c-3c[nH]c21 [Compound 6e, N-isobutyl-3-oxo-2-phenyl-2,3-dihydrodipyrazolo[3,4-b:3′,4′-d]pyridine-6(5H)-carboxamide] | C (C indicates % inhibition <20%) | A (A indicates % inhibition >80%)
CC(C)CCNC(=O)n1ncc2c3nn(-c4ccccc4)c(=O)c-3c[nH]c21 [Compound 6g, N-isopentyl-3-oxo-2-phenyl-2,3-dihydrodipyrazolo[3,4-b:3′,4′-d]pyridine-6(5H)-carboxamide] | B (B indicates % inhibition <80% and >20%) | A (A indicates % inhibition >80%)
O=C(N1CCCC1)n1ncc2c3nn(-c4ccccc4)c(=O)c-3c[nH]c21 [Compound 6k, 2-phenyl-6-(pyrrolidine-1-carbonyl)-5,6-dihydrodipyrazolo[3,4-b:3′,4′-d]pyridin-3(2H)-one] | C (C indicates % inhibition <20%) | C (C indicates % inhibition <20%)
CC(C)NC(=O)n1ncc2c3nn(-c4ccc(Cl)cc4)c(=O)c-3c[nH]c21 [Compound 6p, 2-(4-chlorophenyl)-N-isopropyl-3-oxo-2,3-dihydrodipyrazolo[3,4-b:3′,4′-d]pyridine-6(5H)-carboxamide] | C (C indicates % inhibition <20%) | C (C indicates % inhibition <20%)
CCNC(=O)n1ncc2c3nn(-c4cc(C(F)(F)F)cc(C(F)(F)F)c4)c(=O)c-3c[nH]c21 [Compound 6q, 2-(3,5-bis(trifluoromethyl)phenyl)-N-ethyl-3-oxo-2,3-dihydrodipyrazolo[3,4-b:3′,4′-d]pyridine-6(5H)-carboxamide] | – | C (C indicates % inhibition <20%)
CC(C)NC(=O)n1ncc2c3nn(-c4cc(C(F)(F)F)cc(C(F)(F)F)c4)c(=O)c-3c[nH]c21 [Compound 6r, 2-(3,5-bis(trifluoromethyl)phenyl)-N-isopropyl-3-oxo-2,3-dihydrodipyrazolo[3,4-b:3′,4′-d]pyridine-6(5H)-carboxamide] | – | B (B indicates % inhibition <80% and >20%)
